Reference: patent US10111881B2 (priority 2016, dated 2018)
pEC50, pIC50: −log10 of the molar value. Read-outs that look alike come from different tables or passages of the source.

Columns and labels:
MARV = experiment: microbe, parasite or virus in culture; type: cell-based, Marburgvirus (Musoke strain)
EBOV [1] = experiment: organism not typed; type: cell-based, Zaire Ebolavirus (Mayinga strain)
EBOV [2] = experiment: microbe, parasite or virus in culture; type: cell-based, Zaire Ebolavirus (Mayinga strain); details: for pIC50: read-out: Activity in macrophages IC50
EBOV [3] = type: cell-based, Zaire Ebolavirus (Mayinga strain)
HeLa cells [4] = type: cell-based, human; details: for Dextran Uptake: 50 μM
HeLa cells [5] = type: cell-based, human; details: for Transferrin uptake: 50 μM
[6] = tested on: Baby hamster kidney fibroblasts (BHK) cells; experiment: Acridine orange assay for acidification blockers; type: cell-based
Cathepsin = Cathepsin cleavage of GP
NPC1 C-loop = target: T1, NPC1 C-loop (Homo sapiens, UniProt O15118); experiment: NPC1 C-loop binding
T1 construct: C-loop
T1 sequence (O15118 372-620 limits assumed): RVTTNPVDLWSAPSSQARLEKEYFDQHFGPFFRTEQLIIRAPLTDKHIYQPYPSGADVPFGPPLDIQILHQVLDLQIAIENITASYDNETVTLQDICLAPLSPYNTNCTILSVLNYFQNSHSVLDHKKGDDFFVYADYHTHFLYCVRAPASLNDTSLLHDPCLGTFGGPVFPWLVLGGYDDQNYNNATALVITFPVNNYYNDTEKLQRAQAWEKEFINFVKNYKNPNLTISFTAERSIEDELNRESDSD

HeLa cells [7] = details: human
IL-1-Beta = details: PubChem / MLSMR data; cited from earlier work
Janus kinase 2 = details: PubChem data; cited from earlier work
Synuclein = details: PubChem data; cited from earlier work
Shiga toxins A and B = details: cited from earlier work
MDM2/A = MDM2/A (Homo sapiens, UniProt Q00987); details: MLSMR screening network data; cited from earlier work
MDM2/A, sequence (Q00987 whole entry, species assumed): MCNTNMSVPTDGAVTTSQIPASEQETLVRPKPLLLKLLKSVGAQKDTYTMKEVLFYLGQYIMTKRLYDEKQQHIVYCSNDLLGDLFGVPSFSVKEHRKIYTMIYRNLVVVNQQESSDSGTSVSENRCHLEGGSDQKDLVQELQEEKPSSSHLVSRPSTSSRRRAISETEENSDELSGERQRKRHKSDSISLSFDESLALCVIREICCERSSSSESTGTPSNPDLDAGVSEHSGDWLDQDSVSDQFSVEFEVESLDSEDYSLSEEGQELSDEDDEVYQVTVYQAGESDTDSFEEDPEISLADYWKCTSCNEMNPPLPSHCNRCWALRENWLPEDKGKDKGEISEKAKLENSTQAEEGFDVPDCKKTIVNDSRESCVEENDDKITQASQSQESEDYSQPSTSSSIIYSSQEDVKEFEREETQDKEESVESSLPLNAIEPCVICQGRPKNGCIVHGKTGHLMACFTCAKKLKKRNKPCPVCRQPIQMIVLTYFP

MDM4/1 = target: T2, MDM4/1 (Homo sapiens, UniProt O15151); details: MLSMR screening network data; cited from earlier work
T2 sequence (O15151 1-490): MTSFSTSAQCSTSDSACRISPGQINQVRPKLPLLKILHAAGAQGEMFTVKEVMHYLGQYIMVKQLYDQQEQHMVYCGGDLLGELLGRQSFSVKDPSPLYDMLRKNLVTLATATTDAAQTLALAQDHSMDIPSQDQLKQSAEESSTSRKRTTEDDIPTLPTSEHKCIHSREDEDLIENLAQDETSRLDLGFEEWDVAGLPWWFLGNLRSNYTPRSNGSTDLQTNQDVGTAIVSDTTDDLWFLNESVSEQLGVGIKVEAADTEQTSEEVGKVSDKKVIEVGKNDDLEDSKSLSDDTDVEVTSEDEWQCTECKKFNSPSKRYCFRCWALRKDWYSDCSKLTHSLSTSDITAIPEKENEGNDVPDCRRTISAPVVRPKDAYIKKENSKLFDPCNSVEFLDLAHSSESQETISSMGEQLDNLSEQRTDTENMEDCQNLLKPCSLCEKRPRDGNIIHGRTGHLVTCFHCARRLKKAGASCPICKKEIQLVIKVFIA

HeLa cells [8] = type: cell-based, human
EEA1-positive vesicles = type: cell-based, human
LAMP1-positive vesicles = type: cell-based, human
TDP1 = TDP1 (Homo sapiens, UniProt Q9NUW8); details: PubChem data; cited from earlier work
TDP1, sequence (Q9NUW8 whole entry, species assumed): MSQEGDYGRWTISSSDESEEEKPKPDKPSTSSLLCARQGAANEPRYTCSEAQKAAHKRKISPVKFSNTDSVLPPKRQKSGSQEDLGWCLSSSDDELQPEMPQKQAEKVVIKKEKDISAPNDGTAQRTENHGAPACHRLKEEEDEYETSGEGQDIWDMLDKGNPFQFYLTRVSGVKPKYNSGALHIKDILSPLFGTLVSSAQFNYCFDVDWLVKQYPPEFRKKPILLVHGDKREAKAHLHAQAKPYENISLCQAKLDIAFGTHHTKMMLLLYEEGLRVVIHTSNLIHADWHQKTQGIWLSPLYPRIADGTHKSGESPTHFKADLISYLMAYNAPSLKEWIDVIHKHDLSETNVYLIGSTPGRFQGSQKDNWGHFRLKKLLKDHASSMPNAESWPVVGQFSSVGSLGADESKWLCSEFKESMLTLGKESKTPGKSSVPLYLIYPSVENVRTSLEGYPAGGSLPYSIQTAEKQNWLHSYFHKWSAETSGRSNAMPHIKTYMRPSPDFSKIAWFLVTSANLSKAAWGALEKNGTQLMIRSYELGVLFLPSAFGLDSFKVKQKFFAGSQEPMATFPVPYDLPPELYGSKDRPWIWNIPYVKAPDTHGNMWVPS

[9] = target: T3, acetylcholine receptor M1 (Homo sapiens, UniProt P11229); details: PubChem data; cited from earlier work
T3 sequence (P11229 1-460): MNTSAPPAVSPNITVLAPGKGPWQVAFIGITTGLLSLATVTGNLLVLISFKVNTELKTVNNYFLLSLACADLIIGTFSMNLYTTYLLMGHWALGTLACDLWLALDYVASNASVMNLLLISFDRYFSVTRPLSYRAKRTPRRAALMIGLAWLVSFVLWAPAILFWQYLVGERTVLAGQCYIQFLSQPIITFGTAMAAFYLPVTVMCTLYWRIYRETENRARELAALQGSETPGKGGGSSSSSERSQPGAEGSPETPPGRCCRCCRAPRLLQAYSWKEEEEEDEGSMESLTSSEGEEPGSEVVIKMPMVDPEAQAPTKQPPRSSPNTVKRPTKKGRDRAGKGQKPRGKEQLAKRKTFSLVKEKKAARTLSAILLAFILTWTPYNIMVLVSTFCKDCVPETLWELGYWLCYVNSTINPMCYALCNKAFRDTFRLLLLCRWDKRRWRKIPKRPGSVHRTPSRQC

Row | SMILES | Curve class (MARV) (MARV) | MARV (Curve class) (MARV) | Curve Class (EBOV) (EBOV [1]) | EBOV (curve class) (EBOV [1]) | Surface interaction (EBOV [3]) | Uninfected cell number (EBOV [3]) | enhancement of virus interaction with cells (EBOV [3]) | Dextran Uptake (HeLa cells [4]) | effect on transferrin uptake (HeLa cells [5]) | Transferrin uptake (HeLa cells [5]) | Acidification Block [6] | Cathepsin clevage (Cathepsin) | NPC1 C-loop binding (NPC1 C-loop) | inhibition of MDM2/A (MDM2/A) | inhibition of MDM4/1 (MDM4/1) | pIC50 (MARV; read-out: IC-50 (MARV)) | pIC50 (MARV; read-out: MARV HeLa IC50) | pIC50 (EBOV [1]; read-out: EBOV HeLa IC50) | pIC50 (EBOV [1]; read-out: IC-50 (EBOV)) | pIC50 (EBOV [2]) | also measured
1 | O=[N+]([O-])c1cc(S(=O)(=O)NCCN2CCOCC2)ccc1Sc1nnnn1-c1ccccc1 [MLS000394177, N-(2-morpholin-4-ylethyl)-3-nitro-4-(1-phenyltetrazol-5-yl)sulfanylbenzenesulfonamide] | 1.3 | 1.3 | 1.6 | 1.6 | + | 0 | 44% | − | no effect on transferrin uptake | 0 | + | 0 | 0 | identified as inhibitors | identified as inhibitors |  |  |  |  |  | pIC50 (MARV; Orthomarburgvirus, HeLa, read-out: IC-50 (MARV)): 4.89; IC50 (MARV; Orthomarburgvirus, HeLa, read-out: MARV HeLa IC50 (μM)): 12.9 µM; potency for Ebolavirus inhibition, times better than EIPA (EBOV [1]): 25 times; pEC50 (EBOV [1]; HeLa, read-out: EC50 for Ebolavirus inhibition): 5.72; IC50 (EBOV [1]; Zaire ebolavirus, HeLa, read-out: EBOV HeLa IC50 (μM)): 1.9 µM; pIC50 (EBOV [1]; Zaire ebolavirus, HeLa, read-out: IC-50 (EBOV)): 5.72; IC50 (EBOV [2]; Zaire ebolavirus, Macrophage, read-out: Activity in macrophages IC50 (μM)): 8.6 µM; reduction of number of viral particles inside the cell body (EBOV [3]): 62%; reduction of uptake of fluorescently labeled dextran (HeLa cells [4]): approximately 91%; effect on endosomal acidification [6]: affected endosomal acidification; toxic concentration (not toxic up to / toxic at) (HeLa cells [7]): > 100 µM; secretion of IL-1-Beta (IL-1-Beta): inhibit secretion of IL-1-Beta; inhibition of Janus kinase 2 (JNK2) (Janus kinase 2): active; Synuclein activity (Synuclein): active; Shiga toxins A and B (Shiga toxins A and B): active
2 | N#Cc1c(NCCN)nc(-c2ccccc2)c2c1CCCC2 [MLS000534476] | 1.3 | 1.3 | 1.6 | 1.6 | − | + |  | 0 |  | − | + | 0 | 0 | identified as inhibitors | identified as inhibitors | 5.21 | 5.21 | 4.61 | 4.61 | 5.44 | decrease in total viral particles bound to cell surface (EBOV [3]): 55%; virus particle uptake (EBOV [3]): reduced particle uptake; decrease in transferrin binding to cells (HeLa cells [8]): > 55%; effect on endosomal acidification [6]: affected endosomal acidification; GP cleavage by cellular proteases (Cathepsin): reduced GP cleavage
3 | CC(C)(C)c1nc2ccccc2c2nnc(SCC(=O)Nc3nccs3)n12 [MLS000555232] | 1.3 | 1.3 | 1.6 | 1.6 | + | 0 | 89% | 0 | do not inhibit transferrin uptake | 0 | − | 0 | 0 | identified as inhibitors | identified as inhibitors | 5.20 | 5.20 | 5.77 | 5.76 | 5.03 | increase in virus particle binding to the cell surface (EBOV [3]): ~2 fold; Effect on EEA1 (EEA1-positive vesicles): −; reduction of colocalization of EBOV VLPs with EEA1-positive vesicles (EEA1-positive vesicles): 77%; Effect on LAMP1 (LAMP1-positive vesicles): −; reduction of number of VLPs present in LAMP1-positive vesicles (LAMP1-positive vesicles): 89%
4 | CC(C)N1CCN(C(=O)c2ccc(OC3CCN(CCc4ccccc4)CC3)cc2)CC1 [MLS001101371] | 1.3 | 1.3 | 1.3 | 1.3 | 0 | 0 |  | 0 | do not inhibit transferrin uptake | 0 | + | 0 | 0 |  |  | 4.89 | 4.89 | 4.89 | 4.89 | 4.61 | Effect on EEA1 (EEA1-positive vesicles): 0; VLP colocalization with EEA1 (EEA1-positive vesicles): colocalized with EEA1 positive vesicles normally; Effect on LAMP1 (LAMP1-positive vesicles): −; reduction of number of VLPs present in LAMP1-positive vesicles (LAMP1-positive vesicles): 41%; antagonist of DNA repair gene TDP1 (TDP1): identified; antagonist of acetylcholine receptor M1 [9]: identified
